Assay results published in patent publication US9012216B2, “Methods of determining efficacy of cyclodextrin therapy” (Washington University, priority 2008, dated 2015).

Assay: Stability of oxysterols in NPC plasma samples processed with/without BHT at 4° C. or room temperature
Format: physicochemical, human
Experimental: Treatments include: NPC plasma samples treated with BHT (“BHT”), no BHT (“No BHT”), at 4° C. with BHT (“4 BHT”), at 4° C. without BHT (“4 No BHT”), at room temperature (20-21° C.) with BHT (“RT BHT”), and at room temperature (20-21° C.) without BHT (“RT No BHT”).
Treatments include: NPC plasma samples treated overnight with BHT (“BHT”), no BHT (“No BHT”), at 4° C. with BHT (“4 BHT”), at 4° C. without BHT (“4 No BHT”), at room temperature (20-21° C.) with BHT (“RT BHT”), and at room temperature (20-21° C.) without BHT (“RT No BHT”).
The stability of the oxysterols triol and 7-keto prepared in accordance with the methods of the present disclosure are shown in FIGS. 7A and 7B. Patient's having confirmed NPC disease were used to obtain plasma biological samples. The plasma biological samples were processed as described in Examples 1-4 except that some of the samples were not treated with butylated hydroxytoluene (BHT, a known antioxidant that prevents further oxidation of cholesterol), and either treated at room temperature or at 4° C. with and without BHT.

Compound	Stability in plasma samples: ability to isolate and quantify
CC(C)CCC[C@@H](C)[C@H]1CC[C@H]2[C@@H]3C(=O)C=C4C[C@@H](O)CC[C@]4(C)[C@H]3CC[C@]12C [7-keto, 7-ketocholesterol]	without adversely affecting
CC(C)CCC[C@@H](C)[C@H]1CC[C@H]2[C@@H]3C[C@@H](O)[C@@]4(O)C[C@@H](O)CC[C@]4(C)[C@H]3CC[C@]12C [triol, cholestane-3β,5α,6β-triol]	without adversely affecting
